According to patent US10961200B2, “Small molecule inhibitors of lactate dehydrogenase and methods of use thereof” (THE UNITED STATES OF AMERICA, AS REPRESENTED BY THE …, priority 2014, dated 2021):

Each molecule was assayed against Human LDHA (Homo sapiens (Human), UniProt P00338) (assay: human LDHA primary biochemical assay (resazurin/diaphorase coupled, fluorescence)). Conditions: LDHA inhibitory activity, activity level based on IC50 (Table 7).
Excerpt: Test compounds were placed in a Greiner Bio-One (Monroe, N.C.) 1536-well black solid bottom assay plate. 200 millimolar (mM) Tris HCl, pH 7.4, 100 micromolar […] EDTA and 0.01% TWEEN-20™, final concentration, was used as the assay buffer. The LDHA reagent was 2 nanomolar (nM) Human LDHA (Meridian Life Science, Inc., Memphis, Tenn.), final concentration, in assay buffer.

IC50, 100 to 1000 nM:
CCc1cccc(-c2cc(-c3nn(-c4nc(C(=O)O)cs4)cc3Cc3ccc(S(N)(=O)=O)cc3)ccc2C)c1 [Compound 488, 2-(3-(3′-ethyl-6-methyl-[1,1′-biphenyl]-3-yl)-4-(4-sulfamoylbenzyl)-1H-pyrazol-1-yl)thiazole-4-carboxylic acid]
Cc1ccc(-c2nn(-c3nc(C(=O)O)cs3)cc2Cc2ccc(S(N)(=O)=O)cc2)cc1-c1cc(F)cc(F)c1 [Compound 489, 2-(3-(3′,5′-difluoro-6-methyl-[1,1′-biphenyl]-3-yl)-4-(4-sulfamoylbenzyl)-1H-pyrazol-1-yl)thiazole-4-carboxylic acid]
Cc1ccc(-c2nn(-c3nc(C(=O)O)cs3)cc2Cc2ccc(S(N)(=O)=O)cc2)cc1-c1ccncc1 [Compound 490, 2-(3-(4-methyl-3-(pyridin-4-yl)phenyl)-4-(4-sulfamoylbenzyl)-1H-pyrazol-1-yl)thiazole-4-carboxylic acid]
Cc1ccc(-c2nn(-c3nc(C(=O)O)cs3)cc2Cc2ccc(S(N)(=O)=O)cc2)cc1-c1ccccc1 [Compound 491, 2-(3-(6-methyl-[1,1′-biphenyl]-3-yl)-4-(4-sulfamoylbenzyl)-1H-pyrazol-1-yl)thiazole-4-carboxylic acid]
Cc1ccc(-c2nn(-c3nc(C(=O)O)cs3)cc2Cc2ccc(S(N)(=O)=O)cc2)cc1-c1ccc(F)c(F)c1 [Compound 492, 2-(3-(3′,4′-difluoro-6-methyl-[1,1′-biphenyl]-3-yl)-4-(4-sulfamoylbenzyl)-1H-pyrazol-1-yl)thiazole-4-carboxylic acid]
Cc1cc(-c2cc(-c3nn(-c4nc(C(=O)O)cs4)cc3Cc3ccc(S(N)(=O)=O)cc3)ccc2C)ccc1F [Compound 493, 2-(3-(4′-fluoro-3′,6-dimethyl-[1,1′-biphenyl]-3-yl)-4-(4-sulfamoylbenzyl)-1H-pyrazol-1-yl)thiazole-4-carboxylic acid]
COc1ccc(-c2cc(-c3nn(-c4nc(C(=O)O)cs4)cc3Cc3ccc(S(N)(=O)=O)cc3)ccc2C)cc1F [Compound 494, 2-(3-(3′-fluoro-4′-methoxy-6-methyl-[1,1′-biphenyl]-3-yl)-4-(4-sulfamoylbenzyl)-1H-pyrazol-1-yl)thiazole-4-carboxylic acid]
Cc1cc(C)cc(-c2cc(-c3nn(-c4nc(C(=O)O)cs4)cc3Cc3ccc(S(N)(=O)=O)cc3)ccc2C)c1 [Compound 495, 2-(4-(4-sulfamoylbenzyl)-3-(3′,5′,6-trimethyl-[1,1′-biphenyl]-3-yl)-1H-pyrazol-1-yl)thiazole-4-carboxylic acid]
Cc1ccc(-c2cc(-c3nn(-c4nc(C(=O)O)cs4)cc3Cc3ccc(S(N)(=O)=O)cc3)ccc2C)cc1C#N [Compound 496, 2-(3-(3′-cyano-4′,6-dimethyl-[1,1′-biphenyl]-3-yl)-4-(4-sulfamoylbenzyl)-1H-pyrazol-1-yl)thiazole-4-carboxylic acid]
Cc1ccc(-c2nn(-c3nc(C(=O)O)cs3)cc2Cc2ccc(S(N)(=O)=O)cc2)cc1-c1cccc(F)c1 [Compound 497, 2-(3-(3′-fluoro-6-methyl-[1,1′-biphenyl]-3-yl)-4-(4-sulfamoylbenzyl)-1H-pyrazol-1-yl)thiazole-4-carboxylic acid]
Cc1ccc(-c2nn(-c3nc(C(=O)O)cs3)cc2Cc2ccc(S(N)(=O)=O)cc2)cc1-c1ccc(F)cc1 [Compound 498, 2-(3-(4′-fluoro-6-methyl-[1,1′-biphenyl]-3-yl)-4-(4-sulfamoylbenzyl)-1H-pyrazol-1-yl)thiazole-4-carboxylic acid]
CCc1cccc(-c2cc(-c3nn(-c4nc(C(=O)O)cs4)cc3Cc3ccc(S(N)(=O)=O)cc3)ccc2F)c1 [Compound 513, 2-(3-(3′-ethyl-6-fluoro-[1,1′-biphenyl]-3-yl)-4-(4-sulfamoylbenzyl)-1H-pyrazol-1-yl)thiazole-4-carboxylic acid]
Cc1ccc(-c2cc(-c3nn(-c4nc(C(=O)O)cs4)cc3Cc3ccc(S(N)(=O)=O)cc3)ccc2F)cc1C [Compound 516, 2-(3-(6-fluoro-3′,4′-dimethyl-[1,1′-biphenyl]-3-yl)-4-(4-sulfamoylbenzyl)-1H-pyrazol-1-yl)thiazole-4-carboxylic acid]
NS(=O)(=O)c1ccc(Cc2cn(-c3nc(C(=O)O)cs3)nc2-c2ccc(F)c(-c3ccc(F)c(F)c3)c2)cc1 [Compound 517, 2-(4-(4-sulfamoylbenzyl)-3-(3′,4′,6-trifluoro-[1,1′-biphenyl]-3-yl)-1H-pyrazol-1-yl)thiazole-4-carboxylic acid]
Cc1ccc(-c2cc(-c3nn(-c4nc(C(=O)O)cs4)cc3Cc3ccc(S(N)(=O)=O)cc3)ccc2F)cc1F [Compound 520, 2-(3-(3′,6-difluoro-4′-methyl-[1,1′-biphenyl]-3-yl)-4-(4-sulfamoylbenzyl)-1H-pyrazol-1-yl)thiazole-4-carboxylic acid]
NS(=O)(=O)c1ccc(Cc2cn(-c3nc(C(=O)O)cs3)nc2-c2cccc(-c3cccnc3)c2)cc1 [Compound 522, 2-(3-(3-(pyridin-3-yl)phenyl)-4-(4-sulfamoylbenzyl)-1H-pyrazol-1-yl)thiazole-4-carboxylic acid]
Nc1cccc(-c2cccc(-c3nn(-c4nc(C(=O)O)cs4)cc3Cc3ccc(S(N)(=O)=O)cc3)c2)c1 [Compound 524, 2-(3-(3′-amino-[1,1′-biphenyl]-3-yl)-4-(4-sulfamoylbenzyl)-1H-pyrazol-1-yl)thiazole-4-carboxylic acid]

IC50, < 100 nM:
COc1cccc(-c2cc(-c3nn(-c4nc(C(=O)O)cs4)c(C4CC4)c3Cc3ccc(S(N)(=O)=O)cc3)ccc2F)c1 [Compound 483, 2-(5-cyclopropyl-3-(6-fluoro-3′-methoxy-[1,1′-biphenyl]-3-yl)-4-(4-sulfamoylbenzyl)-1H-pyrazol-1-yl)thiazole-4-carboxylic acid]
Cc1ccc(-c2cc(-c3nn(-c4nc(C(=O)O)cs4)c(C4CC4)c3Cc3ccc(S(N)(=O)=O)cc3)ccc2F)cc1 [Compound 484, 2-(5-cyclopropyl-3-(6-fluoro-4′-methyl-[1,1′-biphenyl]-3-yl)-4-(4-sulfamoylbenzyl)-1H-pyrazol-1-yl)thiazole-4-carboxylic acid]
Cc1ccc(-c2nn(-c3nc(C(=O)O)cs3)cc2Cc2ccc(S(N)(=O)=O)cc2)cc1-c1cccnc1 [Compound 486, 2-(3-(4-methyl-3-(pyridin-3-yl)phenyl)-4-(4-sulfamoylbenzyl)-1H-pyrazol-1-yl)thiazole-4-carboxylic acid]
Cc1ccc(-c2nn(-c3nc(C(=O)O)cs3)cc2Cc2ccc(S(N)(=O)=O)cc2)cc1-c1cccc(N)c1 [Compound 487, 2-(3-(3′-amino-6-methyl-[1,1′-biphenyl]-3-yl)-4-(4-sulfamoylbenzyl)-1H-pyrazol-1-yl)thiazole-4-carboxylic acid]
Cc1ccc(-c2nn(-c3nc(C(=O)O)cs3)c(C3CC3)c2Cc2ccc(S(N)(=O)=O)cc2)cc1-c1cccnc1 [Compound 499, 2-(5-cyclopropyl-3-(4-methyl-3-(pyridin-3-yl)phenyl)-4-(4-sulfamoylbenzyl)-1H-pyrazol-1-yl)thiazole-4-carboxylic acid]
Cc1ccc(-c2nn(-c3nc(C(=O)O)cs3)c(C3CC3)c2Cc2ccc(S(N)(=O)=O)cc2)cc1-c1cccc(N)c1 [Compound 500, 2-(3-(3′-amino-6-methyl-[1,1′-biphenyl]-3-yl)-5-cyclopropyl-4-(4-sulfamoylbenzyl)-1H-pyrazol-1-yl)thiazole-4-carboxylic acid]
COc1cc(-c2cc(-c3nn(-c4nc(C(=O)O)cs4)cc3Cc3ccc(S(N)(=O)=O)cc3)ccc2F)ccc1F [Compound 518, 2-(3-(4′,6-difluoro-3′-methoxy-[1,1′-biphenyl]-3-yl)-4-(4-sulfamoylbenzyl)-1H-pyrazol-1-yl)thiazole-4-carboxylic acid]
Cc1cccc(-c2cccc(-c3nn(-c4nc(C(=O)O)cs4)cc3Cc3ccc(S(N)(=O)=O)cc3)c2)c1 [Compound 519, 2-(3-(3′-methyl-[1,1′-biphenyl]-3-yl)-4-(4-sulfamoylbenzyl)-1H-pyrazol-1-yl)thiazole-4-carboxylic acid]
COc1cccc(-c2cccc(-c3nn(-c4nc(C(=O)O)cs4)cc3Cc3ccc(S(N)(=O)=O)cc3)c2)c1 [Compound 521, 2-(3-(3′-methoxy-[1,1′-biphenyl]-3-yl)-4-(4-sulfamoylbenzyl)-1H-pyrazol-1-yl)thiazole-4-carboxylic acid]
CC(C)=Cc1cc(-c2nn(-c3nc(C(=O)O)cs3)c(CC3CC3)c2Cc2ccc(S(N)(=O)=O)c(F)c2)ccc1F [Compound 530, 2-(5-(cyclopropylmethyl)-3-(4-fluoro-3-(2-methylprop-1-en-1-yl)phenyl)-4-(3-fluoro-4-sulfamoylbenzyl)-1H-pyrazol-1-yl)thiazole-4-carboxylic acid]
NS(=O)(=O)c1ccc(Cc2c(-c3ccc(F)c(/C=C/C4CC4)c3)nn(-c3nc(C(=O)O)cs3)c2CC2CC2)cc1F [Compound 532, (E)-2-(5-(cyclopropylmethyl)-3-(3-(2-cyclopropylvinyl)-4-fluorophenyl)-4-(3-fluoro-4-sulfamoylbenzyl)-1H-pyrazol-1-yl)thiazole-4-carboxylic acid]

IC50, 1000 to 57000 nM:
NS(=O)(=O)c1ccc(Cc2cn(-c3nc(C(=O)O)cs3)nc2-c2ccc(F)c(-c3cc(Cl)cc(Cl)c3)c2)cc1 [Compound 514, 2-(3-(3′,5′-dichloro-6-fluoro-[1,1′-biphenyl]-3-yl)-4-(4-sulfamoylbenzyl)-1H-pyrazol-1-yl)thiazole-4-carboxylic acid]
NS(=O)(=O)c1ccc(Cc2c(CC3CC3)nn(-c3nc(C(=O)O)cs3)c2-c2cc(F)cc(-c3cccc(F)c3)c2)cc1 [Compound 525, 4-((3-(cyclopropylmethyl)-5-(3′,5-difluoro-[1,1′-biphenyl]-3-yl)-1-(4-((oxo-l3-methyl)-l3-oxidanyl)thiazol-2-yl)-1H-pyrazol-4-yl)methyl)benzenesulfonamide]
